# From patent publication US11225474B2, “Crystalline salt forms of 3-(1,2,4-triazolo[4,3-a]pyridine-3-ylethynyl)-4-methyl-N-(4-((4-methylpiperazin-1-yl)methyl)-3-trifluoromethylphenyl)benzamide for medical application” (priority 2016, dated 2022)
# Read-outs that look alike come from different tables or passages of the source.
# Key:
# physchem = assay type: physicochemical
# [1] = Stability, 7 days at T = 60° C.; assay type: physicochemical
# in vivo [2] = experiment: in vivo; parameters: species or system C57BL/6 line mice; conditions: mouse, plasma; mesylate polymorphous modification I 59 mg/kg (50 mg/kg as free base), single oral, C57BL/6 mice; read-out: Cmax
# Description: FIGS. 52A-52B. […] The mean values were determined for each time point on the basis of the individual data obtained from three animals.
# The results of the study are given in FIG. 52 and in Tables 14 and 15.
# EPHA8 = EPHA8 (Homo sapiens, UniProt P29322); experiment: Human kinase panel at 100 nM; assay type: biochemical
# RAF1 = RAF1 (Homo sapiens, UniProt P04049); experiment: Human kinase panel at 100 nM; assay type: biochemical
# ZAK/MLTK = ZAK/MLTK (Homo sapiens, UniProt Q9NYL2); experiment: Human kinase panel at 100 nM; assay type: biochemical
# K562 = experiment: Cytotoxicity, Ph+ CML model cell line; assay type: cell-based; conditions: Homo sapiens, read-out: IC50 (toxicity)
# BV-173 = experiment: Cytotoxicity, Ph+ CML model cell line; assay type: cell-based; conditions: Homo sapiens, read-out: IC50 (toxicity)
# SupB15 = experiment: Cytotoxicity, Ph+ ALL model cell line; assay type: cell-based; conditions: Homo sapiens, SUP-B15, read-out: IC50 (toxicity)
# CCRF-CEM = experiment: Cytotoxicity, acute lymphoblastic leukemia line; assay type: cell-based, human
# in vivo [3] = conditions: for Vd / half-life / clearance / AUC / bioavailability: in vivo; for Vd: read-out: apparent volume of distribution Vd; for half-life: read-out: half-life period (converted); for clearance: intravenous administration; for bioavailability: read-out: bioavailability F
# From the text: Clearance following intravenous administration is quite high: 2.12 L/h/kg for dogs, 1.61 L/h/kg for rats. A large apparent volume of distribution (Vd=14.1 L/kg for dogs, 6.16 L/kg for rats) indicates extensive drug distribution in tissues.
# [4] = Drug distribution in rat tissues; assay type: in vivo
# CYP3A4 = CYP3A4 (Homo sapiens, UniProt P08684); experiment: Metabolism study using cytochrome enzyme drugs; assay type: in vitro ADME
# CYP1A2 = CYP1A2 (Homo sapiens, UniProt P05177); experiment: Metabolism study using cytochrome enzyme drugs; assay type: in vitro ADME
# CYP2D6 = CYP2D6 (Homo sapiens, UniProt P10635); experiment: Metabolism study using cytochrome enzyme drugs; assay type: in vitro ADME; conditions: 2D6
# potassium hERG channel = potassium hERG channel (Homo sapiens, UniProt Q12809); experiment: Effect on the ion hERG channel; assay type: cell-based; conditions: tested at 0.1-10 μM, mesylate salt
# mice = experiment: Acute toxicity studies, mice; assay type: in vivo
# [5] = Daily intragastric administration during 28 days, rats; conditions: rat, in vivo, po; for MTD at 28 days: daily intragastric
# Gene toxicity: Ames test = assay type: cell-based; conditions: all concentrations tested
# Drosophila melanogaster = experiment: Gene toxicity: induced somatic mosaicism; assay type: in vivo; conditions: all doses tested
# murine marrow cells = experiment: Gene toxicity: metaphase chromosome aberration assay; assay type: in vivo; conditions: all doses tested
# A549 = conditions: oral, 25 mg/kg (21 mg/kg as free base), 20 days
# Description: Thymus-deprived male mice were used in the studies. A549 (1×10^7 cells) were injected with 0.2 mL of matrigel solution (BD Pharmingen) into the left leg of a mouse under ketamine/xylazine anesthesia. In a week after the injections, mice were distributed between therapeutic and control groups that were randomized by tumor size. Oral administration of the methanesulfonic acid salt of 3-(1,2,4-triazolo[4,3-a]pyridine-3-ylethynyl)-4-methyl-N-(4-((4-methylpiperazine-1-yl)methyl)-3-trifluoromethylphenyl)benzamide at a dose of 25 mg/kg (equivalent to 21 mg/kg calculated as the free base) was started on the next day after randomization and continued for 20 days. To determine the efficacy of tumor growth inhibition, the average size ratio was calculated for the therapeutic/control groups (% T/C).
# Bcr-Abl = Bcr-Abl (Homo sapiens, UniProt P00519); experiment: Bcr-Abl tyrosine kinase enzyme activity
# Bcr-Abl (E255K) = Bcr-Abl (E255K) (Homo sapiens, UniProt P00519, E255K, form not given); experiment: Bcr-Abl tyrosine kinase enzyme activity
# Bcr-Abl (G250E) = Bcr-Abl (G250E) (Homo sapiens, UniProt P00519, G250E, form not given); experiment: Bcr-Abl tyrosine kinase enzyme activity
# Bcr-Abl (M351T) = Bcr-Abl (M351T) (Homo sapiens, UniProt P00519, M351T, form not given); experiment: Bcr-Abl tyrosine kinase enzyme activity
# ZAK/MLTK, sequence (Q9NYL2 whole entry): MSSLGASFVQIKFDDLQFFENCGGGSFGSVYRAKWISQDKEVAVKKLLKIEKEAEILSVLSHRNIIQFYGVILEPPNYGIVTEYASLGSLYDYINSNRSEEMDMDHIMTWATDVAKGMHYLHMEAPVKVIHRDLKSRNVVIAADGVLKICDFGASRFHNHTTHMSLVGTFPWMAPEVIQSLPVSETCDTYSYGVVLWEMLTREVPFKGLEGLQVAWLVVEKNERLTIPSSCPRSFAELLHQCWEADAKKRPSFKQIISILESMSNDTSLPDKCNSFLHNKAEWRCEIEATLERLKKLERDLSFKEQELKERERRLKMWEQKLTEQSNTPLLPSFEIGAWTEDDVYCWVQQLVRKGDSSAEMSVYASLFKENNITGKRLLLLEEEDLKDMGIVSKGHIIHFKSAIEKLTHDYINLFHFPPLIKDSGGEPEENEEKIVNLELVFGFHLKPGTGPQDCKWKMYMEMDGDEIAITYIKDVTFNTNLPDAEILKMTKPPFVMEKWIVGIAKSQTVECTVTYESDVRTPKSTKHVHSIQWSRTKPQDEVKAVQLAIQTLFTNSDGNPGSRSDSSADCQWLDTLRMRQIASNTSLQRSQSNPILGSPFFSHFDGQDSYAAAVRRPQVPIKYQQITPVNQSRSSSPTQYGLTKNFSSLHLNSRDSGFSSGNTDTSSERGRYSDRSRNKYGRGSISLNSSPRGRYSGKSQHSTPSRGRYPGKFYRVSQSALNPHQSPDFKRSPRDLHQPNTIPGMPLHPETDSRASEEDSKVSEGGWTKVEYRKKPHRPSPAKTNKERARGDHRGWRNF
# CYP3A4, sequence (P08684 whole entry): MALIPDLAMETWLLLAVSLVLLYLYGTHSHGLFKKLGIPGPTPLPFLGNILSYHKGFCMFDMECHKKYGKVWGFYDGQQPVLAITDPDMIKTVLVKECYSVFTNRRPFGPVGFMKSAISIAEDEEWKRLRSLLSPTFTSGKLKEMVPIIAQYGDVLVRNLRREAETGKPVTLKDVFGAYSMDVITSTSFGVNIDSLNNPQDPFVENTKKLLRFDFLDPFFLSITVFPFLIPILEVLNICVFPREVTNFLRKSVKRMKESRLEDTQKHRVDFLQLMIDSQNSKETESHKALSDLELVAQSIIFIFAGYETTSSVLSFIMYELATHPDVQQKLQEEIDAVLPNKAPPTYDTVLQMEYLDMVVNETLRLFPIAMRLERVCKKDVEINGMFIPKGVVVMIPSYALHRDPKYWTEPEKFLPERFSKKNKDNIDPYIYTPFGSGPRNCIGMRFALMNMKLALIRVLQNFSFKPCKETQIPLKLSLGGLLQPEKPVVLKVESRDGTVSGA
# EPHA8, sequence (P29322 28-1005): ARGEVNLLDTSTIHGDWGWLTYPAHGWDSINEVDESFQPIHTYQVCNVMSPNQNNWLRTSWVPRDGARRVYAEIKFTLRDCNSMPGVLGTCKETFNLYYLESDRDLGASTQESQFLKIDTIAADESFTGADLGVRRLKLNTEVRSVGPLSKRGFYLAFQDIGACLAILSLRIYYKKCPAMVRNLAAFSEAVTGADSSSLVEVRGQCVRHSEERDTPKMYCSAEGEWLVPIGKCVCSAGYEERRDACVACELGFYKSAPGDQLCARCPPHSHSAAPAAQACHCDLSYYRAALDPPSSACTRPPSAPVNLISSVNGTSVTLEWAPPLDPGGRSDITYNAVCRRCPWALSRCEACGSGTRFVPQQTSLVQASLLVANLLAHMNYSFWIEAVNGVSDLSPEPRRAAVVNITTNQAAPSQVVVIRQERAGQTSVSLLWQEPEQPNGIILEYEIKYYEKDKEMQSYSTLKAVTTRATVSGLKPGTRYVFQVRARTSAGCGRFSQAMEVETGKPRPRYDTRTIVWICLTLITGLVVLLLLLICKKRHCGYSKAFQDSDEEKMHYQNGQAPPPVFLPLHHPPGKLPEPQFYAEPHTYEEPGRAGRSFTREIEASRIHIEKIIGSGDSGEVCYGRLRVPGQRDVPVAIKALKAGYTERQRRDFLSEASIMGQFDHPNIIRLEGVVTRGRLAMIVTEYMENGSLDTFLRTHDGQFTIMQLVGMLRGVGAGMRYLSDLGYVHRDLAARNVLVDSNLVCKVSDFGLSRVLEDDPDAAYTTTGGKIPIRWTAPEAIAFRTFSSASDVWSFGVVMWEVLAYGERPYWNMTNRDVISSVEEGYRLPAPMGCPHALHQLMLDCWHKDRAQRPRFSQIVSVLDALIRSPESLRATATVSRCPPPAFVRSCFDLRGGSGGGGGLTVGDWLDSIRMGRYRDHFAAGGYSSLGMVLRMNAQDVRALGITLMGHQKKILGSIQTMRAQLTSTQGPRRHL
# RAF1, sequence (P04049 whole entry): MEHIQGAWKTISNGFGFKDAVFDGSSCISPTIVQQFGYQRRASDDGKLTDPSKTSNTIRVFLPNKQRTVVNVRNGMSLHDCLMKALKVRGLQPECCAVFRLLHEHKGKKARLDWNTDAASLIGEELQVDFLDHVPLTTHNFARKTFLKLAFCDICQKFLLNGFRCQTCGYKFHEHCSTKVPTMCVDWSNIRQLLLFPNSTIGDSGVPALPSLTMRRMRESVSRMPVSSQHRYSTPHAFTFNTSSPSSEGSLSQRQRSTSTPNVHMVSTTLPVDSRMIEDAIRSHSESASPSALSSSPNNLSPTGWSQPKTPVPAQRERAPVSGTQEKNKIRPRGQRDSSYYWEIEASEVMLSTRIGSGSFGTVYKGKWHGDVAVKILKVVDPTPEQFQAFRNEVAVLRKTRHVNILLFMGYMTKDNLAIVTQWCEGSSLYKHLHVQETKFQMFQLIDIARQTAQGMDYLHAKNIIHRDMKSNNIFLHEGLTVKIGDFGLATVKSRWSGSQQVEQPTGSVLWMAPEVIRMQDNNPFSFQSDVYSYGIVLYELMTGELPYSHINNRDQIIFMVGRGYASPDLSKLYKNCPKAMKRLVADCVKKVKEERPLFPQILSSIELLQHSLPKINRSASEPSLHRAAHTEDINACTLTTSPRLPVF
# CYP1A2, sequence (P05177 whole entry): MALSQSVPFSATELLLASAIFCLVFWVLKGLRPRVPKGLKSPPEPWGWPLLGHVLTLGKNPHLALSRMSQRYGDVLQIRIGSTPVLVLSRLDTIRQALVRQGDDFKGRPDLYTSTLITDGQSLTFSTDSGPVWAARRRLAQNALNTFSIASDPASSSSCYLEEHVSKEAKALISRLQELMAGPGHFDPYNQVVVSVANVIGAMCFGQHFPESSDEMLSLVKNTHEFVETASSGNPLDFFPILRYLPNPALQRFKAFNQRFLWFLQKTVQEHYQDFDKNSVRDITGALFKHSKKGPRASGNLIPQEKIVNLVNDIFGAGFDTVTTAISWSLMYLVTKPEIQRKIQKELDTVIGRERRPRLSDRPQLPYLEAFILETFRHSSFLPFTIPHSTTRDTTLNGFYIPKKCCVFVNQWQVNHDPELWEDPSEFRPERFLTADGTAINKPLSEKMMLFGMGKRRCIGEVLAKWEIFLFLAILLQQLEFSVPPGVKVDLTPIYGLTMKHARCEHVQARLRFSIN
# potassium hERG channel, sequence (Q12809 whole entry): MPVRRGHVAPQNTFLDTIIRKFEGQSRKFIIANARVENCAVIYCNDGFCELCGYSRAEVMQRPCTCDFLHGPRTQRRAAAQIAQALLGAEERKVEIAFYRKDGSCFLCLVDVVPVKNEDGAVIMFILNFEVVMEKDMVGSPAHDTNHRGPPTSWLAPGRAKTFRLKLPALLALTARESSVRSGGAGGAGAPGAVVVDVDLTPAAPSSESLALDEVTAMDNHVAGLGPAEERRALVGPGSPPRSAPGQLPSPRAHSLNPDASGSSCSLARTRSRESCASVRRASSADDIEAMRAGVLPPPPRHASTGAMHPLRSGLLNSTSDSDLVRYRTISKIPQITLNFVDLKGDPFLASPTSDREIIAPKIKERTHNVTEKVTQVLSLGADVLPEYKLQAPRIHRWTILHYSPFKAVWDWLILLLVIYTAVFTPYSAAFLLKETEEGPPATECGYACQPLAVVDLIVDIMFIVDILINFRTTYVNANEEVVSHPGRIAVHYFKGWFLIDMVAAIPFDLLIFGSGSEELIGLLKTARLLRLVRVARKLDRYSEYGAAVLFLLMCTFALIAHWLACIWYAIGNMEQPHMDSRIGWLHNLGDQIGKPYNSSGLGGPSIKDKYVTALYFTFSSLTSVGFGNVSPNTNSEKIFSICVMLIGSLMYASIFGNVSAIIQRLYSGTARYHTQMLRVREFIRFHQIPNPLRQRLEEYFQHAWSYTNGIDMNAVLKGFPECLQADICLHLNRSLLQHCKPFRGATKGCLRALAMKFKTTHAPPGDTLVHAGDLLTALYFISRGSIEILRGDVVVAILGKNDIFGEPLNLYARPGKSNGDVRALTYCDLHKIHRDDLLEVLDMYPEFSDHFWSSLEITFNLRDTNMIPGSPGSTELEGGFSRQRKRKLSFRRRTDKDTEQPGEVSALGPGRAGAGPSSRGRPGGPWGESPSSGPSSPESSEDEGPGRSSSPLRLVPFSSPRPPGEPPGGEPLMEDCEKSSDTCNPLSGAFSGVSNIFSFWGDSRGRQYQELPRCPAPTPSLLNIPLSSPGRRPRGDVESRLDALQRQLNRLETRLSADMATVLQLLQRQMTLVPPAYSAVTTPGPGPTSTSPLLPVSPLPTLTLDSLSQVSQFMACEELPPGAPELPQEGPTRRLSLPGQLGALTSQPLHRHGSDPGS
smiles,measurement,setting,value
"CS(=O)(=O)O.Cc1ccc(C(=O)Nc2ccc(CN3CCN(C)CC3)c(C(F)(F)F)c2)cc1C#Cc1nnc2ccccn12 [methanesulfonic acid salt, 3-(1,2,4-triazolo[4,3-a]pyridine-3-ylethynyl)-4-methyl-N-(4-((4-methylpiperazin-1-yl)methyl)-3-trifluoromethylphenyl)benzamide mono methanesulfonic acid salt]",Apparent solubility,physchem,>46 mg/mL
same,solubility,"physchem; deionized water, RT, read-out: Apparent solubility",> 46 mg/mL
same,Crystallinity in 7 days,[1]; 7 days at T = 60° C.,Cryst.
same,"Relative peak area, in 7 days",[1]; 7 days at T = 60° C.,99.7%
same,"Relative peak area, initial",[1]; before storage,99.7%
same,content of impurities,[1]; kept seven days at 60° C.,remained constant
same,Cmax,in vivo [2],1100 ng/mL
same,inhibition at 0.1 µM,EPHA8,> 50%
same,inhibition at 0.1 µM,RAF1,> 50%
same,inhibition at 0.1 µM,ZAK/MLTK,> 50%
same,IC50,K562,8 nM
same,IC50,BV-173,5 nM
same,IC50,SupB15,50 nM
same,cytotoxicity,CCRF-CEM,showed cytotoxicity
same,Vd,"in vivo [3]; dog, dogs",14.1 L/kg
same,half-life,"in vivo [3]; dog, dogs",~7 h
same,clearance,"in vivo [3]; dog, dogs",35.3 mL/min/kg
same,AUC,"in vivo [3]; dog, oral, dogs, 2 mg/kg",420 ng·h/mL
same,AUC,"in vivo [3]; dog, oral, dogs, 22 mg/kg",5480 ng·h/mL
same,AUC,"in vivo [3]; dog, oral, dogs, 45 mg/kg",5170 ng·h/mL
same,bioavailability,"in vivo [3]; dog, oral, dogs, 2 to 22 mg/kg (2 to 19 mg/kg as free base)",45.9 to 66.1%
same,maximum plasma concentration,"in vivo [3]; oral, dogs, 2 to 45 mg/kg",31.8 to 224 ng/mL
same,time to maximum plasma concentration,"in vivo [3]; oral, dogs, 2 to 45 mg/kg",3 to 8.5 h
same,maximum concentration,"in vivo [3]; oral, rats, 5 mg/kg",72 ng/mL
same,maximum concentration,"in vivo [3]; oral, rats, 80 mg/kg",1250 ng/mL
same,time to maximum concentration,"in vivo [3]; oral, rats, 5 to 80 mg/kg",2.3 to 5.3 h
same,clearance,"in vivo [3]; rat, rats",26.8 mL/min/kg
same,AUC,"in vivo [3]; rat, oral, rats, 5 mg/kg",430 ng·h/mL
same,AUC,"in vivo [3]; rat, oral, rats, 80 mg/kg",21100 ng·h/mL
same,bioavailability,"in vivo [3]; rat, oral, rats, 5 to 80 mg/kg (4.2 to 68 mg/kg as free base)",13.8 to 59.5%
same,Vd,"in vivo [3]; rat, rats",6.16 L/kg
same,half-life,"in vivo [3]; rat, rats",~3 h
same,Kp,"[4]; bone marrow, read-out: concentration in bone marrow relative to plasma",27
same,Kp,"[4]; brain, read-out: exposure in brain relative to blood plasma exposure",~0.2
same,Kp,"[4]; kidneys, read-out: concentration in kidneys relative to plasma",34
same,Kp,"[4]; liver, read-out: concentration in liver relative to plasma",21
same,Kp,"[4]; lungs, read-out: concentration in lungs relative to blood plasma",~71
same,Kp,"[4]; spleen, read-out: concentration in spleen relative to plasma",45
same,participation of the isoform in metabolism,CYP3A4,involves participation
same,participation of the isoform in metabolism,CYP1A2,does not involve
same,participation of the isoform in metabolism,CYP2D6,does not involve
same,IC50,potassium hERG channel,7800 nM
same,LD10,mice; calculated as the free base,678 mg/kg
same,LD10,mice; dose of the salt,800 mg/kg
same,Cmax,"[5]; Day 28, dose of 50 mg/kg daily intragastric",661 ± 289 ng/mL
same,AUC,"[5]; Day 28, dose of 50 mg/kg daily intragastric, read-out: AUC24",8600 ng·h/mL
same,MTD at 28 days,"[5]; 2 separate studies, dose of the salt",50 to 73 mg/kg
same,MTD at 28 days,[5]; calculated as a free base,42 to 62 mg/kg
same,genotoxic effects,Gene toxicity: Ames test,had no genotoxic effects
same,genotoxic effects,Drosophila melanogaster,had no genotoxic effects
same,genotoxic effects,murine marrow cells,had no genotoxic effects
same,Equilibrium solubility,"deionized water, HPLC analysis, listed as HAL-G-196-20",>100 mg/mL
same,pH,equilibrium solubility test in water,3.6
same,Crystallinity in 24 h,"solid in water, equilibrium solubility test",Dissolution
same,solubility relative to the free base,water,"10,000 fold"
same,T/C (average tumor size ratio therapeutic/control),A549,< 35%
same,IC50,Bcr-Abl,0.49 to 3.1 nM
same,IC50,Bcr-Abl (E255K),9.5 nM
same,IC50,Bcr-Abl (G250E),7.4 nM
same,IC50,Bcr-Abl (M351T),2.8 nM
